Reference: patent US7932276B2, “Agent for curing chronic obstructive pulmonary disease” (Otsuka Pharmaceutical Co., Ltd., priority 2001, dated 2011)

System: guinea pigs exposed to smoke of cigarette
Test: Cigarette smoke exposure guinea pig COPD model, respiratory functions by Double-chamber Plethymograph method
Format: in vivo, Hartley strain guinea pigs
Settings: 10 mg/kg orally once a day; for Changes in Peak expiration flow / Changes in Specific airway resistance value: change vs value before exposure to cigarette smoke
Description: In accordance with the method of Jun-ichi Fuchikami, et al. (Japanese Journal of Pharmacology, 2000, (82), p. 247), the following pharmacological test was conducted.
Hartley strain guinea pigs (5 weeks age, body weight: 300 to 379.5 g) were exposed to smoke of cigarette (trade name: Hi-Light, manufactured by Japan Tobacco Inc.) for 1 hour/day, 5 days a week, during 4 weeks, by using a flow-past type nose-only inhalation chamber, manufactured by Muenster Co. Control group as a normal group was exposed to the atmospheric air instead of cigarette smoke.
Compound A was suspended in 0.5% tragacanth gum aqueous solution, and this suspension was orally administered compulsorily to the guinea pigs (compound A administered group), in the amount of 10 mg/kg once a day, 1 hour before the exposure to cigarette smoke in the day of exposure, and in the morning in the day of non-exposure, respectively.
To the guinea pigs in the vehicle administered group, a 0.5% tragacanth gum aqueous solution without containing Compound A was orally administered instead of the suspension of compound A.
While, to the guinea pigs in the control group, neither the 0.5% tragacanth aqueous solution nor the compound A suspension were administered.
Before exposure and during the period of 4 weeks of exposure to the smoke of cigarette, the respiratory functions (specific airway resistance and peak expiration flow) of the guinea pigs were non-invasively assessed once a week under conscious condition, using Double-chamber Plethymograph method with a respiratory function measuring equipment (Pulmos-I, manufactured by M.I.P.S. Co.).
The respiratory functions (i.e., values of specific airway resistance and peak expiration flow) were obtained as an average of 100 times measured values of the functions, and were shown as the changes of percentage to the respective value of respiratory function measured before exposure to cigarette smoke.

CCOc1ccc(-c2nc(-c3cccc(C(=O)O)n3)cs2)cc1OCC [Compound A, 6-[2-(3,4-diethoxyphenyl)thiazol-4-yl]pyridine-2-carboxylic acid]
Effect on specific airway resistance and peak expiration flow as compared with vehicle administered group (4 weeks cigarette smoke exposure): excellent improving effects
Changes in Peak expiration flow (1 Week after exposure): 9.67%
Changes in Specific airway resistance value (1 Week after exposure): 12.75%
Changes in Peak expiration flow (2 Week after exposure): 15.67%
Changes in Specific airway resistance value (2 Week after exposure): 41.82%
Changes in Peak expiration flow (3 Week after exposure): 14.08%
Changes in Specific airway resistance value (3 Week after exposure): 61.08%
Changes in Peak expiration flow (4 Week after exposure): 37.06%
Changes in Specific airway resistance value (4 Week after exposure): 51.26%
